Test results as given in patent US20260345572A1, “PHARMACEUTICAL FORMULATIONS WITH ACTIVITY INHIBITING HISTONE METHYLTRANSFERASES FOR THE TREATMENT OF NEOPLASTIC DISEASES” (Ente Ospedaliero Specializzato in Gastroenterologia …, priority 2022, published 2026).

Columns and labels:
HCT116 cells [1] = experiment: Cell viability (WST-1); assay type: cell-based, human; conditions: FIG. 5
Protocol: (§1) The human cell lines HT29, HCT116, SW480, MDA-MB-231, MDA-MB-468, HGC-27, and PANC1 were cultured in DMEM culture medium, supplemented with 10% fetal bovine serum (FBS); N87, AGS and KATO III were cultured in RPMI culture medium supplemented with 10% FBS; CACO2 were cultured in DMEM culture medium, supplemented with 20% FBS and nonessential amino acids. All cell lines were cultured in the presence of 1% antibiotics (Penicillin and Streptomycin), at 37 °C in an atmosphere of 5% CO2 and always maintained in a subconfluence state.
(§2) Cell viability analysis was performed by using WST-1 kit (Roche), allowing to measure viable cell metabolic activity. In short, the quantitation of mitochondrial dehydrogenase activity is assessed by soluble tetrazolium salt ([…], colorless) conversion into its corresponding product, formazane (colored). The quantitative assessment of salt conversion into its colored form is then performed by spectrophotometrically calculating absorption at 450 nm. Substrate conversion levels are therefore proportional to enzymatic activity which, in turn, represents a marker of cell viability and proliferation.

HT29 cells = experiment: Cell viability (WST-1); assay type: cell-based, human; conditions: FIG. 5
Protocol: as §1, §2

HCT116 cells [2] = experiment: Apoptotic cell percentage (Annexin V); assay type: cell-based, human; conditions: FIG. 1B; EM127 + chemotherapeutic compound (Oxaliplatin, 5-Fluorouracil or Irinotecan, 10 μM)
Protocol: as §1
(§3) Analysis of the percentage of cells undergoing programmed death, referred to as apoptosis, was performed by Annexin V assay. The concentrations of live cells, cells in early apoptosis, in total apoptosis and dead cells were measured with Muse Annexin V and Dead Cell Reagent kit (Luminex). 5×10^4 cells/mL were stained with the reagent provided by the kit. After 20 min incubation, fluorescence is read with Guava® Muse® Cell Analyzer. The test was performed on the following cell lines: HCT116, PANC1, SW480, MDA-MB-231, MCF7, AGS.

[3] = test system: colorectal cancer stem cells; experiment: Clonogenic assay; assay type: cell-based, human; conditions: FIG. 3C; EM127 + Oxaliplatin, 5-Fluorouracil or Irinotecan 10 μM
Text: (§4) In compliance with Art 170bis, Paragraph 3 C.P.I., it is hereby certified that: • The colorectal cancer stem cells used at the base of the invention object of the present application have been isolated from patients, and the aforementioned cells were obtained following the free and informed consent to their collection and use expressed by the person from whom said material has been collected, under the regulations in force; and • C57BL/6 mice for the AOM/DSS murine model of colorectal cancer were not genetically modified.
For the clonogenic assay, previously dissociated colorectal cancer tumorspheres were plated in triplicate using 500 cells per experimental point and resuspended in 0.3% agarose on a 0.5% agarose layer. Subsequently, they were treated with EM127 and chemotherapeutic compounds.

[4] = test system: colorectal cancer stem cells; experiment: Cancer stem cell viability; assay type: cell-based, human; conditions: FIG. 3A; EM127 + Oxaliplatin, 5-Fluorouracil or Irinotecan 10 μM
Text: as §4, §2

[5] = test system: PANC1, SW80, AGS, N87, HGC-27 cells; experiment: Cell death and viability, FIG. 6 panel of cell lines; assay type: cell-based, human; conditions: 72 h
Protocol: as §1
as §2, with “Substrate conversion levels are therefore proportional to enzymatic activity which, in turn, represents a marker of cell viability and proliferation.” left out
as §3, with “5×10^4 cells/mL were stained with the reagent provided by the kit.” left out, “The test was performed on the following cell lines: HCT116, PANC1, SW480, MDA-MB-231, MCF7, AGS.” left out

[6] = test system: colorectal cancer stem cells; experiment: Migration assay (Boyden chamber); assay type: cell-based, human; conditions: FIG. 3B; EM127 + Oxaliplatin, 5-Fluorouracil or Irinotecan 10 μM
Text: as §4
To assess cell motility, colorectal cancer tumorspheres were suspended in 200 μl non-supplemented stem cell culture medium and plated in the top section of a Boyden culture chamber, which is separated from the bottom part by a polycarbonate membrane allowing cells to migrate. The underlying section contains 600 μl of stem cell medium supplemented with 20 ng/ml EGF and 10 ng/ml basic FGF and chemotherapeutic compounds.

[7] = test system: PANC1 pancreatic cancer cells; experiment: Cell viability (WST-1); assay type: cell-based, human
Protocol: as §1, §2

[8] = test system: MDA-MB-231 breast cancer cells; experiment: Cell viability (WST-1); assay type: cell-based, human; conditions: FIG. 4; EM127 + chemotherapeutic compounds (Paclitaxel 10 μM, Oxaliplatin 10 μM, Doxorubicin 1 μM)
Protocol: as §1, §2

N87 gastric cancer cells = experiment: Cell viability (WST-1); assay type: cell-based, human
Protocol: as §1, §2

KATO III cells = experiment: Cell viability (WST-1); assay type: cell-based, human; conditions: FIG. 7; EM127 alone; low SMYD3 protein levels
Protocol: as §1, §2

[9] = test system: Caco2 colorectal cancer cells; experiment: Cell viability (WST-1); assay type: cell-based, human; conditions: FIG. 1A; EM127 72 h + Oxaliplatin, 5-Fluorouracil or Irinotecan 10 μM for the last 24 h; vs chemotherapeutic compound alone
Protocol: as §1, §2

AGS gastric cancer cells [10] = experiment: Cell viability (WST-1); assay type: cell-based, human
Protocol: as §1, §2

MDA-MB-468 cells = experiment: Cell viability (WST-1); assay type: cell-based, human; conditions: FIG. 7; EM127 alone; low SMYD3 protein levels
Protocol: as §1, §2

[11] = test system: SW480 colorectal cancer cells; experiment: Cell viability (WST-1); assay type: cell-based, human
Protocol: as §1, §2

[12] = test system: HGC-27 gastric cancer cells; experiment: Cell viability (WST-1); assay type: cell-based, human
Protocol: as §1, §2

[13] = test system: HCT116-derived tumor spheroids; experiment: LIVE/DEAD viability of tumorspheres; assay type: cell-based, human; conditions: FIG. 2; EM127 + Oxaliplatin or Irinotecan 10 μM
Protocol: The tumorspheres deriving from the continuous cell line HCT116 “HCT116-derived tumor spheroids” were obtained by using a suitable DMEM/F12 Advanced culture medium supplemented with 1× Glutamine, 1× Penicillin/streptomycin, 0.6% glucose, 1×B27, 1×N2, 20 ng/ml EGF, 10 ng/ml bFGF, and cultured in media surface-treated to ensure a very low cell adhesion.
To assess cell viability on HCT116-derived tumorspheres, LIVE/DEAD® Viability/Cytotoxicity Assay kit (Thermo Fisher) was used, allowing to discriminate live cells from dead ones with two probes measuring intracellular enzymatic activity and plasma membrane integrity. Tumorspheres were incubated with the reagent provided by the kit and then visualized with a fluorescence microscope. Live cells are stained with reagent calcein and generate a green fluorescence signal; dead cells are stained with ethidium homodimer, generating a red signal.

[14] = test system: AOM/DSS murine model of colorectal cancer; experiment: AOM/DSS murine model of colorectal cancer; assay type: in vivo, C57BL/6 mice; conditions: FIG. 8; EM127 20 mg/kg + Irinotecan 20 mg/kg, intraperitoneally, 14 days; vs Irinotecan alone
Protocol: C57BL/6 mice were treated intraperitoneally with 12 mg/kg azoxymethane (AOM). Dextran sulfate sodium (DSS) was then administered, at 2% in water for five days, followed by two weeks with water only. This cycle was repeated thrice. At +10 days from the last DSS administration, the Inventors proceeded with the treatment with 20 mg/kg EM127 and/or 20 mg/kg Irinotecan, or with the carrier alone, intraperitoneally, for a total of 14 days.

[15] = test system: MDA-MB-231 breast cancer cells; experiment: Synergistic effect, nonviable/apoptotic cell population; assay type: cell-based, human; conditions: FIG. 9, >1 = synergistic
Protocol: (§5) Analysis of non-viable cell percentage was carried out by counting live cells and dead cells after staining with 0.01% Trypan Blue, a dye permeating cells only in the condition in which plasma membrane integrity is compromised. In short, after collecting the culture medium and the plate-adhering cells, detached by enzymatic treatment with 1% trypsin/EDTA, the pellet obtained by centrifuging was resuspended in an adequate volume of DPBS and 10 μl of cell suspension were diluted in an equal volume of Trypan blue. The counting was performed with a phase-contrast optical microscope, using a Burker chamber.
as §3

AGS gastric cancer cells [16] = experiment: as above; assay type: cell-based, human; conditions: FIG. 9, >1 = synergistic
Protocol: as §5, §3

MCF7 breast cancer cells = experiment: as above; assay type: cell-based, human; conditions: FIG. 9, >1 = synergistic
Protocol: as §5, §3

HR-deficient cell lines = conditions: previously described; cited from earlier work
[17] = single-compound treatment, 72 h, increasing concentrations
[18] = FIG. 6C, EM127 + Olaparib 10 μM, 72 h, vs single compound
[19] = FIG. 4, EM127 + chemotherapeutic compounds (Paclitaxel 10 μM, Oxaliplatin 10 μM, Doxorubicin 1 μM)
[20] = EM127 72 h + 5-Fluorouracil 10 μM last 24 h
[21] = EM127 72 h + Irinotecan 10 μM last 24 h
[22] = EM127 72 h + Oxaliplatin 10 μM last 24 h

O=c1[nH]cc(F)c(=O)[nH]1 [5-Fluorouracil, reference compound]
reduction of cell viability (HCT116 cells [1]; [17]): about 50%
reduction of cell viability (HT29 cells; [17]): about 50%

O=C(NC1CCN(C(=O)CCl)CC1)c1cc(C2CC2)on1 [EM127]
dead (apoptotic) cell percentage (HCT116 cells [2]): increased
ability to form colonies [3]: synergistic effect
cell viability [4]: synergistic effect
cell death ([5]; FIG. 6A, B, EM127 + Olaparib 10 μM, vs single compound): increase of cell death
cell viability by HR status ([5]; FIG. 6C, combined treatment EM127 + Olaparib 10 μM): reduction of cell viability only for HR-proficient cell lines
ability to migrate [6]: synergistic effect
cell viability [7, 18]: reduction of cell viability
cell viability ([7]; FIG. 10, EM127 + Rucaparib): synergistic effect
cell viability [8]: synergistic effect
cell viability (N87 gastric cancer cells; [19]): synergistic effect
cell viability (N87 gastric cancer cells; [18]): reduction of cell viability
cell viability (N87 gastric cancer cells; FIG. 10, EM127 + Rucaparib): synergistic effect
cell viability (KATO III cells): absence of effect
reduction of cell viability (HCT116 cells [1]; [20]): about 50%
reduction of cell viability (HCT116 cells [1]; [21]): about 50%
reduction of cell viability (HCT116 cells [1]; [22]): about 50%
cell viability [9]: reduces cell viability with a greater effect
cell viability (AGS gastric cancer cells [10]; [18]): reduction of cell viability
cell viability (AGS gastric cancer cells [10]; FIG. 10, EM127 + Rucaparib): synergistic effect
cell viability (MDA-MB-468 cells): absence of effect
cell viability ([11]; FIG. 1A, EM127 72 h + Oxaliplatin, 5-Fluorouracil or Irinotecan 10 μM for the last 24 h, vs chemotherapeutic compound alone): reduces cell viability with a greater effect
cell viability ([11]; FIG. 6C, EM127 + Olaparib 10 μM, 72 h, vs single compound, cell line printed SW80): reduction of cell viability
cell viability ([11]; FIG. 10, EM127 + Rucaparib): synergistic effect
reduction of cell viability (HT29 cells; [20]): about 50%
reduction of cell viability (HT29 cells; [21]): about 50%
reduction of cell viability (HT29 cells; [22]): about 50%
cell viability [12, 19]: synergistic effect
cell viability [12, 18]: reduction of cell viability
cell viability ([12]; FIG. 10, EM127 + Rucaparib): synergistic effect
live and dead cells by immunofluorescence [13]: synergy
number of tumors at the level of the colon [14]: reduces the number of tumors
synergistic effect ([15]; EM127 + Doxorubicin): higher than 1
synergistic effect ([15]; EM127 + Paclitaxel): higher than 1
synergistic effect (AGS gastric cancer cells [16]; EM127 + Doxorubicin): higher than 1
synergistic effect (AGS gastric cancer cells [16]; EM127 + Paclitaxel): higher than 1
synergistic effect (MCF7 breast cancer cells; EM127 + Doxorubicin): higher than 1
synergistic effect (MCF7 breast cancer cells; EM127 + Paclitaxel): higher than 1

CCc1c2c(nc3ccc(OC(=O)N4CCC(N5CCCCC5)CC4)cc13)-c1cc3c(c(=O)n1C2)COC(=O)[C@]3(O)CC [Irinotecan, reference compound]
reduction of cell viability (HCT116 cells [1]; [17]): about 50%
reduction of cell viability (HT29 cells; [17]): about 50%

O=C(c1cc(Cc2n[nH]c(=O)c3ccccc23)ccc1F)N1CCN(C(=O)C2CC2)CC1 [Olaparib]
sensitivity to treatment with Olaparib alone (HR-deficient cell lines): sensitive

N[C@@H]1CCCC[C@H]1N.[Pt+2] [Oxaliplatin, reference compound]
reduction of cell viability (HCT116 cells [1]; [17]): about 50%
reduction of cell viability (HT29 cells; [17]): about 50%
